From ChEMBL document CHEMBL5370608, “Selective and Bioavailable HDAC6 2-(Difluoromethyl)-1,3,4-oxadiazole Substrate Inhibitors and Modeling of Their Bioactivation Mechanism” (J Med Chem, 2023)
≈ marks a conversion by molar mass, not a printed value. Calls of active or inactive are those of the source. The rule behind the calls is not given here.

Assays:
[1] = biological target: T1, Protein deacetylase HDAC6 (Homo sapiens, UniProt Q9UBN7); test: Inhibition of full length TEV-cleavable N-terminal His6-tagged human recombinant HDAC6 using Ac-RGK (Ac)-AMC as substrate preincubated for 20 hrs followed by substrate addition and measured after 3 hrs by microplate reader analysis
T1 sequence (Q9UBN7 whole entry): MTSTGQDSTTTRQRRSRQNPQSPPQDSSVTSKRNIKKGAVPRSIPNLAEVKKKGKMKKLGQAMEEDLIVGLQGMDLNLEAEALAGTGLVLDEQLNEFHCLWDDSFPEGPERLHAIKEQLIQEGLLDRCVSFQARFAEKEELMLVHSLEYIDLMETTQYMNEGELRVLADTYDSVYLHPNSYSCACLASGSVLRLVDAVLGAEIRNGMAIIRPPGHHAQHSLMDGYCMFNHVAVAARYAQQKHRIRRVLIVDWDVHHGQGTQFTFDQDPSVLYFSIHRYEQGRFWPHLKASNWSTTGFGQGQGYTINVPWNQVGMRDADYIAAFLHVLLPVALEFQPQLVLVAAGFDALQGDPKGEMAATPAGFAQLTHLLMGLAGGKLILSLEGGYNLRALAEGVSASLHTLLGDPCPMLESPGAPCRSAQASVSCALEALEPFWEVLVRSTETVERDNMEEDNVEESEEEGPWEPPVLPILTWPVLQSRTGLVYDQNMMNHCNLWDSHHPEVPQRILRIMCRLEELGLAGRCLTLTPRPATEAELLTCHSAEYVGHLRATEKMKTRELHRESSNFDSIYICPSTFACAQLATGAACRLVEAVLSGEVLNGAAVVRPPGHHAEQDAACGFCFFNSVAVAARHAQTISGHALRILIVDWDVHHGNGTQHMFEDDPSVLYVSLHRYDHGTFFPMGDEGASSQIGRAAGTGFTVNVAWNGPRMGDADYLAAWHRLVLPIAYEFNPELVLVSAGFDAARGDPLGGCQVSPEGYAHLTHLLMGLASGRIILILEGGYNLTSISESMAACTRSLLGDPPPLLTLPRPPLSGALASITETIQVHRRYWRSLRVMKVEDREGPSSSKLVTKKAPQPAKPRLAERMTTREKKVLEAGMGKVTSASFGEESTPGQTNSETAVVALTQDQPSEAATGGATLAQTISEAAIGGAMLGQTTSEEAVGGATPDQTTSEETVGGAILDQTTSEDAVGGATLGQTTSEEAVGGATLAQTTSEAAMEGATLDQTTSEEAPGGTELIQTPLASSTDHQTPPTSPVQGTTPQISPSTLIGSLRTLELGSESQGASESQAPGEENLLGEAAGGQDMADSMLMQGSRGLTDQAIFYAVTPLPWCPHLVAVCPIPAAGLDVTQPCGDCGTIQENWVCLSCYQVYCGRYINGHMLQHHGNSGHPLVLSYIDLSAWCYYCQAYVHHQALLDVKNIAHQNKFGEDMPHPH

[2] = Aqueous solubility of the compound at pH 7.4; type: physicochemical
[3] = biological target: T1, Protein deacetylase HDAC6; test: Inhibition of HDAC6 in human BEAS-2B cells assessed as deacetylation of acetylated alpha-tubulin level incubated for 24 hrs by Western blot analysis; type: cell-based
[4] = biological target: T1, Protein deacetylase HDAC6; test: Inhibition of HDAC6 in human BEAS-2B cells assessed as deacetylation of acetylated histone-3 level incubated for 24 hrs by Western blot analysis; type: cell-based
[5] = system: THP-1; test: Cytotoxicity against human THP-1 cells assessed as reduction in cell viability by alamar blue staining based assay; type: functional
[6] = Metabolic stability in human liver microsomes assessed as disappearance of parent compound; type: ADME, Microsome; conditions: read-out: CLH
[7] = system: THP-1; test: Cytotoxicity against human THP-1 cells assessed as reduction in cell viability measured upto 250 uM by alamar blue staining based assay; type: functional
[8] = Chemical stability of compound in HCL solution at pH 1 assessed as half life by UPLC analysis; type: physicochemical
[9] = Chemical stability of compound in sodium phosphate buffer at pH 7.4 assessed as half life by UPLC analysis; type: physicochemical
[10] = Chemical stability of compound in sodium carbonate buffer at pH 10 assessed as half life by UPLC analysis; type: physicochemical
[11] = biological target: T1, Protein deacetylase HDAC6; test: Stability of the compound assessed as full-length human HDAC6 mediated-drug degradation measured after 96 hrs by time-resolved mass spectrometry analysis; type: ADME
[12] = biological target: T2, Protein deacetylase HDAC6 (Homo sapiens) (UniProt Q9UBN7); test: Inhibition of HDAC6 in human BEAS-2B cells assessed as deacetylation of acetylated alpha-tubulin level at 10 uM incubated for 24 hrs by Western blot analysis; type: cell-based
T2 sequence (whole entry): T1 sequence (Q9UBN7 whole entry)

With COc1cccc(CNC(=O)c2csc(-c3nnn(Cc4ccc(-c5nnc(C)o5)cc4)n3)c2)c1 the IC50 [1] was > 100000 nM.

Compound Fc1cc(-c2nnc(C(F)F)o2)cc(F)c1Cn1nnc(-c2ccccn2)n1 has an IC50 [1] of 6.31 nM, a solubility [2] of 52 µM (≈ 20.3 µg/mL) and an EC50 [3] of 3160 nM. The IC50 [4] was > 10000 nM, the IC50 ([5]; read-out: pIC50 (converted)) was > 251000 nM and the microsomal CLint [6] was < 3 µL/min/mg. The Activity [7] was “inactive”, the half-life [8] was < 13.7 h and the half-life [9] was 57.6 h. The half-life [10] was < 13.7 h.

Compound COc1cccc(CNC(=O)c2csc(-c3nnn(Cc4ccc(C(=O)NO)cc4)n3)c2)c1 has an IC50 [3] of 200 nM.

FC(F)c1nnc(-c2ccc(Cn3nnc(-c4ccc(Cl)cc4)n3)nc2)o1 gave an IC50 [1] of 2 nM, a solubility [2] of 1.3 µM (≈ 0.507 µg/mL) and an EC50 [3] of 1260 nM. For the same compound, the IC50 [4] was > 10000 nM and the microsomal CLint [6] was < 3 µL/min/mg.

With COc1cccc(CNC(=O)c2csc(-c3nnn(Cc4ccc(-c5nnc(C(F)F)o5)cc4)n3)c2)c1 the IC50 [1] was 1.58 nM, the solubility [2] was < 1.6 µM and the IC50 [3] was 10 nM. For the same compound, the microsomal CLint [6] was 160 µL/min/mg.

For FC(F)c1nnc(-c2ccc(Cn3nnc(-c4cccnc4)n3)nc2)o1, the IC50 [1] was 1.26 nM, the solubility [2] was 170 µM (≈ 60.6 µg/mL) and the EC50 [3] was 1000 nM. For the same compound, the IC50 [4] was > 10000 nM and the microsomal CLint [6] was < 3 µL/min/mg.

In the case of FC(F)c1nnc(-c2ccc(Cn3nnnc3-c3ccccn3)cc2)o1, the IC50 [1] is reported as 31.6 nM, the solubility [2] is reported as 2.6 µM (≈ 0.924 µg/mL) and the EC50 [3] is reported as > 10000 nM. The IC50 [4] was > 10000 nM, the IC50 ([5]; read-out: pIC50 (converted)) was > 251000 nM and the microsomal CLint [6] was 5.8 µL/min/mg. For the same compound, the Activity [7] was “inactive”.

Work on COc1cccc(-c2nnn(Cc3ccc(-c4nnc(C(F)F)o4)cn3)n2)c1 yielded an IC50 [1] of 2 nM, a solubility [2] of 2.9 µM (≈ 1.12 µg/mL) and an EC50 [3] of 316 nM. The IC50 [4] was > 10000 nM and the microsomal CLint [6] was 18 µL/min/mg.

FC(F)c1nnc(-c2ccc(Cn3nnc(-c4cccc(Cl)c4)n3)nc2)o1 gave an IC50 [1] of 1.58 nM, a solubility [2] of 3.1 µM (≈ 1.21 µg/mL) and an EC50 [3] of 631 nM. For the same compound, the IC50 [4] was > 10000 nM and the microsomal CLint [6] was < 3 µL/min/mg.

With FC(F)c1nnc(-c2cnc(NC3(c4ccccc4)CCC(F)(F)CC3)nc2)o1 the IC50 [1] was 3.98 nM, the solubility [2] was 2.6 µM (≈ 1.06 µg/mL) and the EC50 [3] was 631 nM. For the same compound, the IC50 [4] was > 10000 nM, the IC50 ([5]; read-out: IC50) was 130000 nM and the IC50 ([5]; read-out: pIC50 (converted)) was 158000 nM. The microsomal CLint [6] was 12 µL/min/mg and the Stability [11] was “Unstable”.

With FC(F)c1nnc(-c2cnc(Cn3nnc(-c4ccccn4)n3)nc2)o1 the IC50 [1] was 15.8 nM, the solubility [2] was 120 µM (≈ 42.9 µg/mL) and the EC50 [3] was 1580 nM. The IC50 [4] was > 10000 nM, the microsomal CLint [6] was < 3 µL/min/mg and the half-life [8] was 7.2 h. The half-life [9] was 26.4 h, the half-life [10] was < 13.7 h and the Stability [11] was “Unstable”.

FC(F)c1nnc(-c2ccc(Cn3nnc(-c4ccccc4)n3)nc2)o1 showed an IC50 [1] of 0.794 nM, a solubility [2] of 2.9 µM (≈ 1.03 µg/mL) and an EC50 [3] of 316 nM. The IC50 [4] was > 10000 nM, the IC50 ([5]; read-out: pIC50 (converted)) was > 251000 nM and the microsomal CLint [6] was < 3 µL/min/mg. The Activity [7] was “inactive”.

With CNC(=O)c1csc(-c2nnn(Cc3ccc(-c4nnc(C(F)F)o4)cc3)n2)c1 the IC50 [1] was 1 nM, the solubility [2] was 2.3 µM (≈ 0.96 µg/mL) and the EC50 [3] was 501 nM. The IC50 [4] was > 10000 nM, the IC50 ([5]; read-out: pIC50 (converted)) was > 251000 nM and the microsomal CLint [6] was 7.5 µL/min/mg. The Activity [7] was “inactive”.

In the case of FC(F)c1nnc(-c2ccc(Cn3nnc(-c4ccccn4)n3)cn2)o1, the IC50 [1] is reported as > 10000 nM, the solubility [2] is reported as 120 µM (≈ 42.8 µg/mL) and the microsomal CLint [6] is reported as < 3 µL/min/mg.

With FC(F)c1nnc(-c2ccc(Cn3nnc(-c4ccccc4Cl)n3)nc2)o1 the IC50 [1] was 0.631 nM, the solubility [2] was 5.8 µM (≈ 2.26 µg/mL) and the EC50 [3] was 398 nM. The IC50 [4] was > 10000 nM, the IC50 ([5]; read-out: pIC50 (converted)) was > 251000 nM and the microsomal CLint [6] was < 3 µL/min/mg. For the same compound, the Activity [7] was “inactive”.

Compound FC(F)c1nnc(-c2ccc(Cn3nnc(-c4ccccn4)n3)cc2)o1 has an IC50 [1] of 2 nM, a solubility [2] of 14 µM (≈ 4.97 µg/mL) and an EC50 [3] of 3160 nM. The IC50 [4] was > 10000 nM, the IC50 ([5]; read-out: pIC50 (converted)) was > 251000 nM and the microsomal CLint [6] was < 3 µL/min/mg. For the same compound, the Activity [7] was “inactive”, the half-life [8] was 7.44 h and the half-life [9] was 240 h. For the same compound, the half-life [10] was < 13.7 h.

With COc1cccc(CNC(=O)c2csc(-c3nnn(Cc4ccc(-c5nnc(C(F)(F)F)o5)cc4)n3)c2)c1 the IC50 [1] was 12.6 nM and the inhibition [12] was “inactive”.

With O=C(NO)c1cc(F)c(Cn2nnc(-c3ccccn3)n2)c(F)c1 the IC50 [1] was < 0.316 nM, the solubility [2] was 710 µM (≈ 236 µg/mL) and the EC50 [3] was 20 nM. It also gave an IC50 [4] of 5010 nM, an IC50 ([5]; read-out: IC50) of 60000 nM and an IC50 ([5]; read-out: pIC50 (converted)) of 63100 nM. The microsomal CLint [6] was < 3 µL/min/mg, the half-life [8] was 624 h and the half-life [9] was 1730 h. For the same compound, the half-life [10] was 504 h and the Stability [11] was “Stable”.
